Assay results taken from publication PMC3792051, “Polyenylpyrrole Derivatives Inhibit NLRP3 Inflammasome Activation and Inflammatory Mediator Expression by Reducing Reactive Oxygen Species Production and Mitogen-Activated Protein Kinase Activation” (PLoS ONE, 2013).

How the values were obtained:
[1] = tested on: LPS-activated RAW 264.7 macrophages; experiment: Intracellular ROS production (DCF fluorescence), LPS-induced; format: cell-based, murine; conditions: RAW 264.7, 30 min pretreatment; compound 1h 20 µM, NAC 10 mM
Protocol: Intracellular ROS production was measured by detecting the fluorescence intensity of the 2’, 7’-dichlorofluorescein, the oxidation product of 2’, 7’-dichlorofluorescein diacetate (Molecular Probes, Eugene, OR). In one study, RAW 264.7 macrophages (5 × 10^5/ml; 0.1 ml) were incubated with vehicle, compound 1h (20 µM), or NAC (10 mM) for 30 min, then 2’, 7’-dichlorofluorescein diacetate (2 µM) was added for 30 min, then LPS was added for the indicated time. In another, J774A.1 macrophages (5 × 10^5/ml; 0.1 ml) were incubated with LPS (1 µg/ml) for 6 h, then vehicle, compound 1h (20 µM), or DPI (25 µM) was added for 30 min. 2’, 7’-dichlorofluorescein diacetate (2 µM) was then added for 30 min before incubation with ATP (5 mM) for the indicated time; while, in another, the order of addition of compound1h/DPI and LPS was reversed. The fluorescence intensity of 2’, 7’-dichlorofluorescein was detected at an excitation wavelength of 485 nm and an emission wavelength of 530 nm on a microplate absorbance reader (Bio-Rad Laboratories, Inc).
To test whether compound 1h exerted its anti-inflammatory effect on LPS-activated cells by downregulation of ROS production, intracellular ROS production in LPS-activated RAW 264.7 macrophages was measured.
Figure 5 Effect of compound 1h on ROS production and MAPK phosphorylation in LPS-activated macrophages. […]

[2] = tested on: RAW-Blue cells (RAW 264.7 with NF-κB reporter gene); experiment: NF-κB reporter assay (SEAP, QUANTI-Blue); format: cell-based, murine; conditions: 2.5-40 µM 30 min, LPS 1 µg/ml 24 h
Protocol: RAW-Blue™ cells, RAW 264.7 macrophages stably expressing the gene for secreted embryonic alkaline phosphatase (SEAP) inducible by NF-κB, were seeded in 60 mm dishes at a density of 5 × 10^5 cells/ml (1 ml) and grown overnight in a 5% CO2 incubator at 37 °C. They were then pretreated with vehicle or compound 1h for 30 min, then LPS (1 µg/ml) was added and incubation continued for 24 h. The medium was then harvested and 20 µl aliquots mixed with 200 µl of QUANTI-Blue™ medium (InvivoGen) in 96-well plates and incubated at 37 °C for 15 min, then SEAP activity was assessed by measuring the optical density at 655 nm using an ELISA reader.
Following LPS stimulation, IκB in the complex is phosphorylated by IκB kinase (IKK), ubiquitinated, and rapidly degraded in proteasomes, thus releasing NF-κB [30].
Figure 6 Effect of compound 1h on NF-κB activation in LPS-activated macrophages. (A) RAW 264.7 macrophages or (B) J774A.1 macrophages (both 5 × 10^5/ml; 1 ml) were incubated for 30 min with 10-40 µM compound 1h or DMSO, then LPS (1 µg/ml) was added and incubation continued for 20 min, then levels of phosphorylated and total IKK-α and IκB-α were measured by Western blotting. (C) RAW 264.7 macrophages or (D) J774A.1 macrophages (both 5 × 10^5/ml; 1 ml) were treated as in A and B, then nuclear translocation of NF-κB was analyzed by ELISA. […]

## O=c1cc(O)cc(/C=C/C=C/C=C/C=C/c2[nH]ccc2Cl)o1 [compound 1h]
[1]
  LPS-stimulated ROS production: reduced LPS-stimulated ROS production
[2]
  NF-κB transcriptional activity (SEAP reporter): reduced
